Reference: ChEMBL document CHEMBL4725290, “Synthesis of 2-guanidinyl pyridines and their trypsin inhibition and docking” (Bioorg Med Chem, 2020)

Key:
[1] = Competitive inhibition of bovine pancreas trypsin assessed as release of para-nitroaniline using L-BAPA as substrate in presence of 4-nitrophenyl 4-guanidinobenzoate hydrochloride as inhibitor at pH 7.2 at 25 degC; set-up: species or system Bos taurus
Bos taurus = species: Bos taurus; assay: Competitive inhibition of bovine pancreas trypsin assessed as release of para-nitroaniline using L-BAPA as substrate at pH 7.2 in absence of inhibitor at 25 degC
[2] = Competitive inhibition of bovine trypsin using Z-Arg-SBzl as substrate at pH 7.5 at 25 degC; set-up: species or system Bos taurus
[3] = Stability of the compound assessed as bovine trypsin-mediated hydrolysis for 6 days by NMR spectroscopy; assay type: ADME, Bos taurus; details: cattle, isolated protein, 144 h; time 6 day

Compound | Ki [1] [µM] | V0 (Bos taurus) | other results
N=C(N)Nc1cccnc1 | 950 | – | –
CN(C)/C=N/c1ccc(Br)cn1 | > 17200 | – | –
N=C(N)c1ccccc1 [BENZAMIDINE] | – | – | Ki [2]: 35 µM
N=C(N)Nc1ccc(F)cn1 | 144 | 3.79 10^-8M/s | –
N=C(N)Nc1ccc(Cl)cc1 | 127 | – | –
N=C(N)Nc1ccc(-c2ccccc2)cn1 | 955 | – | –
N=C(N)Nc1ccc(C(F)(F)F)cn1 | 218 | 10.3 10^-8M/s | –
CC(=O)c1ccc(NC(=N)N)nc1 | 5040 | – | –
Cc1ccnc(NC(=N)N)c1 | 119 | – | –
N=C(N)Nc1ccncn1 | 514 | – | –
CON(C)C(=O)c1ccc(NC(=N)N)nc1 | 2550 | – | –
N=C(N)Nc1ccc(C=O)cn1 | 289 | – | –
COC(=O)c1ccc(NC(=N)N)nc1.O=C(O)C(F)(F)F | 1080 | – | Stabilty [3]: Stable

Now from value to molecule, other results behind:

Ki [1] [µM] | Compound | V0 (Bos taurus) | other results
34.7 | N=C(N)Nc1ccc(Cl)cn1 | 8.26 10^-8M/s | –
14 | Cc1cccnc1NC(=N)N | – | –
91.3 | Cc1cccc(NC(=N)N)n1 | – | –
83.2 | N=C(N)Nc1ccccn1 | 8.09 10^-8M/s | –
104 | Cc1ccc(NC(=N)N)nc1 | – | –
20.5 | N=C(N)Nc1ccc(Br)cn1 | 3.85 10^-8M/s | –
15.1 | N=C(N)Nc1ccc(I)cn1 | 4.4 10^-8M/s | –
